Results as given in PubChem BioAssay AID624446 (The Scripps Research Institute Molecular Screening Center, 2012).
Active and inactive are the calls of the source.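 How the source made its calls: active means compounds blocking protein phosphatase 1 with half-maximal inhibitory concentration IC50 under 50 µM; inactive means IC50 of 50 µM or more.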

Target: Serine/threonine-protein phosphatase PP1-alpha catalytic subunit (Homo sapiens) (UniProt P62136)
Assay: PP1alpha inhibitor potency, phosphohistone substrate, late-stage follow-up, selectivity assay for PP5 inhibitor project, biochemical, 32P-phosphohistone, radiolabel, dose response, round 5 (AID 624446)
Conditions: purified PP1alpha, 32P-phosphohistone dephosphorylation, scintillation

Chain of Serine/threonine-protein phosphatase PP1-alpha catalytic subunit (Homo sapiens) (P62136 whole entry, looked up): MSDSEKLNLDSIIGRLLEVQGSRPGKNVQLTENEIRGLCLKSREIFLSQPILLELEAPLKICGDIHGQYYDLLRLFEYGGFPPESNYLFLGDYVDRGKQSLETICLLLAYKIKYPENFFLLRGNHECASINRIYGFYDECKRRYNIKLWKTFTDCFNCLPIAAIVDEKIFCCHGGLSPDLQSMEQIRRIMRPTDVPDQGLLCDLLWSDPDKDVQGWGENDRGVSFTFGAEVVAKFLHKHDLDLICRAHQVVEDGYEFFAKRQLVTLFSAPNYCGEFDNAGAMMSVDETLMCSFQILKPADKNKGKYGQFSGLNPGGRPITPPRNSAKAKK

CC(C)Oc1ccccc1-c1n[nH]nc1C(=O)O
IC50: inactive
